These results are taken from patent publication US20250145606A1 (Arcus Biosciences, Inc., priority 2023, published 2025).

Where two headings read alike, the source gives them in different places.

One assay concerns the target PDGFRβ (Homo sapiens (Human), UniProt P09619). Kind of assay: Inhibition of PDGFRβ kinase activity (HTRF KinEASE-TK). The following applies: biochemical, HTRF KinEASE-TK. The method, boiled down:
(§1)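 Recombinant kinases (2 nM CSF1R and c-Kit, 10 nM PDGFRα/β, 2× working) preincubated 1 h with compound in 50 mM HEPES pH 7.4, 5 mM MgCl2 (c-Kit) or 10 mM (others), 2 mM MnCl2; 2× ATP: c-Kit 16 μM, PDGFRα 1 μM, PDGFRβ 40 μM, CSF1R 20 μM. 120 min reaction at rt; TR-FRET 665/620 nm; IC50 by 4-parameter fit.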

In assay [1] the test system is Phospho-KIT (Y703) in M07e cells. The experiment in a line: Phospho-KIT (Y703) cellular assay in M07e cells. The following applies: M-07e, read-out: M07e Cell IC50. It counts as cell-based. The method, boiled down: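 Serum-starved M07e cells preincubated 50 min at 37° C with 11-point half-log compound titration, then stimulated 10 min with SCF at 90.9 ng/mL final. Fixed, permeabilized cells stained for phospho-KIT Y703 and read by flow cytometry (live-gated geometric mean); IC50 by 4-parameter fit normalized to DMSO and positive control.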

The target in another assay is c-Kit (Homo sapiens (Human), UniProt P10721). The experiment in a line: Inhibition of c-Kit kinase activity (HTRF KinEASE-TK). It counts as biochemical. The method, boiled down: as §1
(In general: Time-resolved FRET reads energy transfer from a long-lived donor to a nearby acceptor.)

The target in another assay is FLT3 (Homo sapiens (Human), UniProt P36888). The experiment in a line: Inhibition of FLT3 kinase activity (HTRF KinEASE-TK). It is filed as biochemical. The method, boiled down: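 FLT3 tyrosine kinase activity was measured with the HTRF KinEASE-TK kit by following phosphorylation of a biotinylated TK peptide. After the 45 min reaction, 10 μL of detection mix was added: 0.2 μM (2×) Streptavidin-XL665 and 2 μM (2×) TK-Antibody-Cryptate in detection buffer. After 60 min, TR-FRET was read on an Envision as the 665 nm/620 nm emission ratio with 320 nm excitation.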

The target of the next assay is PDGFRα (Homo sapiens (Human), UniProt P16234). Kind of assay: Inhibition of PDGFRα kinase activity (HTRF KinEASE-TK). The following applies: biochemical, HTRF KinEASE-TK. The method, boiled down: as §1
The next assay has as its target CSF1R (Homo sapiens (Human), UniProt P07333). The experiment in a line: Inhibition of CSF1R kinase activity (HTRF KinEASE-TK). The following applies: biochemical, HTRF KinEASE-TK. The method, boiled down: as §1

CSF1R, sequence (P07333 20-972): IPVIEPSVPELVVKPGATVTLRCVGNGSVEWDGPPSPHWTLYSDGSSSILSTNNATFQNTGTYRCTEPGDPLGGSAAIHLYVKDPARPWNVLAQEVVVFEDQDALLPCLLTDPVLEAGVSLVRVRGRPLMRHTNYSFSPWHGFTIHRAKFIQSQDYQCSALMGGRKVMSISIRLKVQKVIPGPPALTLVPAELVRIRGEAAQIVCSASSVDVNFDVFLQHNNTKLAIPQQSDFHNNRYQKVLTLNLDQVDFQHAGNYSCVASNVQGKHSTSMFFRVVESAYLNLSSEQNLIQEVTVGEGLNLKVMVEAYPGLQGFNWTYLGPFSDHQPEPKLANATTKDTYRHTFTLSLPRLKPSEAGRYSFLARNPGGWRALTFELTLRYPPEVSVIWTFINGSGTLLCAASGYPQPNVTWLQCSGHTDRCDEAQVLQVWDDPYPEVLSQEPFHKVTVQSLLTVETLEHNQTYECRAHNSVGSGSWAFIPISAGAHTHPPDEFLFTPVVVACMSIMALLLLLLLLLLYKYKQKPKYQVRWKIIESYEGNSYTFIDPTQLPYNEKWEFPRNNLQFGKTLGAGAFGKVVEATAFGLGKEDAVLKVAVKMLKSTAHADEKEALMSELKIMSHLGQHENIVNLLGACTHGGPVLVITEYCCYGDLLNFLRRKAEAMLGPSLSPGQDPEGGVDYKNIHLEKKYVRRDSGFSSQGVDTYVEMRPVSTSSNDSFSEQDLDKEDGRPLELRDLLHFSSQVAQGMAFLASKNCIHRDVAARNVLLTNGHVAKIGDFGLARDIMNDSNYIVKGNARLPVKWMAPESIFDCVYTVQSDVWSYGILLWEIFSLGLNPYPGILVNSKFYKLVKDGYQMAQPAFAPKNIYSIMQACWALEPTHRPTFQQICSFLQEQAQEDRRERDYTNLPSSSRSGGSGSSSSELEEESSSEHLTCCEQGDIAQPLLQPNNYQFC
FLT3, sequence (P36888 27-993): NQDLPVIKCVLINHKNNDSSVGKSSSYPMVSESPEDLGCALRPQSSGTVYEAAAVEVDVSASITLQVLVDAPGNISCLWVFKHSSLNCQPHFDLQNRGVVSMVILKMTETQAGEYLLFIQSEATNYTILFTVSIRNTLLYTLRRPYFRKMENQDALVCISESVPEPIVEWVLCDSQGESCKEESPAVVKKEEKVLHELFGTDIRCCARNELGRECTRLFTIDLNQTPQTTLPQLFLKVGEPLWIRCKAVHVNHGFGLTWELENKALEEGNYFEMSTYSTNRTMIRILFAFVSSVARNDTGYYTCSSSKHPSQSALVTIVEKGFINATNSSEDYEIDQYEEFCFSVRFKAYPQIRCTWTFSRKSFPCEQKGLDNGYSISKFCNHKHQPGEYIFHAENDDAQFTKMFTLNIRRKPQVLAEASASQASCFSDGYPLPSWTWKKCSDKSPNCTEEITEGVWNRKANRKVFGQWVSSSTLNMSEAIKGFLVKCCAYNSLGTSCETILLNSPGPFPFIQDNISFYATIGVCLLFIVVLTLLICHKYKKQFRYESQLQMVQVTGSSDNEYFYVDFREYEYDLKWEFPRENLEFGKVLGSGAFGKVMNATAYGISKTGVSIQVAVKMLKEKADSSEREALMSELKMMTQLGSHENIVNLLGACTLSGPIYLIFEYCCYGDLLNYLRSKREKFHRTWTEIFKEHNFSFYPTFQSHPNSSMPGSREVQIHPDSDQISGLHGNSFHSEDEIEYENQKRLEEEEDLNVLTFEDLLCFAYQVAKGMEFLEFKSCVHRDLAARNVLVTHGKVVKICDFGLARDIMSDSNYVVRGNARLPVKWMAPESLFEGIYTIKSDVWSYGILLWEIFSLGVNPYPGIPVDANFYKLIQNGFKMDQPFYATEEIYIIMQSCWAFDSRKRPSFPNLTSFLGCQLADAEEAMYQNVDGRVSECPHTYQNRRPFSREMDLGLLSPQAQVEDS
PDGFRβ, sequence (P09619 33-1106): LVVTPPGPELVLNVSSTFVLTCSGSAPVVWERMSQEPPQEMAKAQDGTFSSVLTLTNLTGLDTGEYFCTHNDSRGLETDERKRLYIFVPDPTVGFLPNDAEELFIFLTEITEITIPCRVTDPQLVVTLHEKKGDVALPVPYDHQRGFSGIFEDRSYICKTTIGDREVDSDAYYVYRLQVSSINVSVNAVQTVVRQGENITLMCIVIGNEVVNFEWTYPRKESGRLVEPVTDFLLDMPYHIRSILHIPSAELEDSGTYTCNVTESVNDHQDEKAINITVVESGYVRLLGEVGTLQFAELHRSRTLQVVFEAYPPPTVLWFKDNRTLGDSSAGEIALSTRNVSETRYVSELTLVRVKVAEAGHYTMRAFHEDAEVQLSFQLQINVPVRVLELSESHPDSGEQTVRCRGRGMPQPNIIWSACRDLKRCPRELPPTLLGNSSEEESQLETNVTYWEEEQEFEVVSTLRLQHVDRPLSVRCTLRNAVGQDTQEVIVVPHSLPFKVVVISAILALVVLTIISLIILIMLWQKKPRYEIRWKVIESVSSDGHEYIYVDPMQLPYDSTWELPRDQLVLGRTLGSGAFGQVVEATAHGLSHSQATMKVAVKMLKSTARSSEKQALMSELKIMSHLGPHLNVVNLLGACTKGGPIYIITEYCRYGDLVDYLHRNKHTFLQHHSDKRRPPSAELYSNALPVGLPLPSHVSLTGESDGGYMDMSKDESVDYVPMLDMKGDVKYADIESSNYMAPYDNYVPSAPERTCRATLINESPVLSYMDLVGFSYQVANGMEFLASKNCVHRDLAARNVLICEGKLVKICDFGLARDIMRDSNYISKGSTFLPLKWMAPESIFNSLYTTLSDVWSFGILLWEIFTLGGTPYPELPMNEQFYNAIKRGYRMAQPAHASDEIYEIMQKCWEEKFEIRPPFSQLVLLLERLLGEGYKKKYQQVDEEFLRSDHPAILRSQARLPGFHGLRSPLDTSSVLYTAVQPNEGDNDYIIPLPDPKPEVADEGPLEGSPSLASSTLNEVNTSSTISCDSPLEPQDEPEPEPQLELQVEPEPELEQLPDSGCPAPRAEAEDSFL
c-Kit, sequence (P10721 26-976): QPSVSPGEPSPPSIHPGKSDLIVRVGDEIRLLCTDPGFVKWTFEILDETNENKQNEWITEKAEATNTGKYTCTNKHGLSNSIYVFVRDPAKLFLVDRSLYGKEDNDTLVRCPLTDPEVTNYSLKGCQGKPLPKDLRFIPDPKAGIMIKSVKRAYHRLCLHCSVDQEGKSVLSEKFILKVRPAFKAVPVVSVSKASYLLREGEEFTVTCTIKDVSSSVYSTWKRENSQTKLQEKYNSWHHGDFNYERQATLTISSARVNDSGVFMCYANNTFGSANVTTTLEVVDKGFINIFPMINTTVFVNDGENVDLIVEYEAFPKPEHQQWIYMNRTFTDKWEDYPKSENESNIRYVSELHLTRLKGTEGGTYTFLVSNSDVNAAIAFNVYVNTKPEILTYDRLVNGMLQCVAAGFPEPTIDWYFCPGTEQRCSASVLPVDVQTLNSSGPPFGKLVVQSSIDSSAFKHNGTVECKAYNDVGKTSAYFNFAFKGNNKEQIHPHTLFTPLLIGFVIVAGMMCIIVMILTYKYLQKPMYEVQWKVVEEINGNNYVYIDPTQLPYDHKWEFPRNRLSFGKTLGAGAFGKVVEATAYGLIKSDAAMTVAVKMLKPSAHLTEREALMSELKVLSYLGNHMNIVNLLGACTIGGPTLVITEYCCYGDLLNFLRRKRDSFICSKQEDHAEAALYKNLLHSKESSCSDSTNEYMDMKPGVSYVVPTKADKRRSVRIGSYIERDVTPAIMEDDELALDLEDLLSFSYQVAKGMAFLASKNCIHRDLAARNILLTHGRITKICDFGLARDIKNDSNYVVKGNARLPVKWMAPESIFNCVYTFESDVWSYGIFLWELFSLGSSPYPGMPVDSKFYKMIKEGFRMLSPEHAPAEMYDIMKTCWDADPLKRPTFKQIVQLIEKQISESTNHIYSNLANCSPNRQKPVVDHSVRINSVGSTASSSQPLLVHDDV
PDGFRα, sequence (P16234 24-1089): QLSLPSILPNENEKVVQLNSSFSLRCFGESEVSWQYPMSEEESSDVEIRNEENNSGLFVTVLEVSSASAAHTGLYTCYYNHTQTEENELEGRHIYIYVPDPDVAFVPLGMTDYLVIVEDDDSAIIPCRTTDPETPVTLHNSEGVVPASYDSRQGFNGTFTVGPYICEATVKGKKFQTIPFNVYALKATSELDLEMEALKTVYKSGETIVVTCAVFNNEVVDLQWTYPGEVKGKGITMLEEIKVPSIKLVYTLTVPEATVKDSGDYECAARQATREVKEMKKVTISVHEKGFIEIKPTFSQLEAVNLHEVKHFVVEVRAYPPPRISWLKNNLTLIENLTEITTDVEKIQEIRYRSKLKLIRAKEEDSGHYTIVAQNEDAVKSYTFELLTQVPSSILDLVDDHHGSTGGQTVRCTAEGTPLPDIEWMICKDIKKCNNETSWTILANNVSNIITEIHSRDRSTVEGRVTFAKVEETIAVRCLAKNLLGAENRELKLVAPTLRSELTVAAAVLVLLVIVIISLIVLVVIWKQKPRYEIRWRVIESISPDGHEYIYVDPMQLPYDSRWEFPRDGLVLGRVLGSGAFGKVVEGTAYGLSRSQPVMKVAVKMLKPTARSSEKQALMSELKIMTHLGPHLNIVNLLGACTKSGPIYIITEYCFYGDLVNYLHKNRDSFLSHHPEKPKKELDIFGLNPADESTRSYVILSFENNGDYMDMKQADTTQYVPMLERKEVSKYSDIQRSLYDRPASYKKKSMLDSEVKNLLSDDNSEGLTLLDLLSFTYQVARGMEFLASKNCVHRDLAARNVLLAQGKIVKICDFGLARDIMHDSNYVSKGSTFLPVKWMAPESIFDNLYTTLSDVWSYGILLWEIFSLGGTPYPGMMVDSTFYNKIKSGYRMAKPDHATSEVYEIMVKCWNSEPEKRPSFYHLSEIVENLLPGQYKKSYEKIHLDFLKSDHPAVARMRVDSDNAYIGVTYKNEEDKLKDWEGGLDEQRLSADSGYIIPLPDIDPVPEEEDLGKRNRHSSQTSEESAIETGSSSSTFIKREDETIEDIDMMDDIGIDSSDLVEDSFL

Consider `Cc1cc(F)c(C(=O)Nc2ccccn2)cc1NC(=O)c1cnc(N)s1` [Example 132, 2-Amino-N-[4-fluoro-2-methyl-5-(pyridin-2-ylcarbamoyl)phenyl]-1,3-thiazole-5-carboxamide], for which the IC50 – broadly, the concentration that gives 50% inhibition – at PDGFRβ was over 1 µM; in assay [1] (Phospho-KIT (Y703), M07e cells), under 0.1 µM; against c-Kit (biochemical, HTRF KinEASE-TK) it was under 0.1 µM; against FLT3 (biochemical, HTRF KinEASE-TK) it was over 1 µM; against PDGFRα it was over 1 µM; against CSF1R it was over 1 µM.

As for `Cc1ccc(NC(=O)c2cc(NC(=O)c3cnc(N)s3)c(C)cc2F)nc1` [Example 133, 2-Amino-N-[4-fluoro-2-methyl-5-[(5-methylpyridin-2-yl)carbamoyl]phenyl]-1,3-thiazole-5-carboxamide], the 50% inhibitory concentration (IC50) at PDGFRβ is over 1 µM; in assay [1] (Phospho-KIT (Y703), M07e cells), under 0.1 µM; against c-Kit (biochemical, HTRF KinEASE-TK), under 0.1 µM; against FLT3 (biochemical, HTRF KinEASE-TK), over 1 µM; at PDGFRα, over 1 µM; against CSF1R, over 1 µM.

In the case of `Cc1cc(F)c(C(=O)Nc2ccc(OC3CCC3)cn2)cc1NC(=O)c1cnc(N)s1` [Example 134, 2-Amino-N-[5-[(5-cyclobutyloxypyridin-2-yl)carbamoyl]-4-fluoro-2-methylphenyl]-1,3-thiazole-5-carboxamide], the IC50 at PDGFRβ is under 0.1 µM; in assay [1] (Phospho-KIT (Y703), M07e cells), under 0.1 µM; on c-Kit (biochemical, HTRF KinEASE-TK), under 0.1 µM; against FLT3 (biochemical, HTRF KinEASE-TK), over 1 µM; against PDGFRα it was 0.1 to 1 µM; against CSF1R it was 0.1 to 1 µM.

Regarding `Cc1cc(F)c(C(=O)Nc2ccc(C3CC3)nn2)cc1NC(=O)c1cnc(N)s1` [Example 135, 2-Amino-N-[5-[(6-cyclopropylpyridazin-3-yl)carbamoyl]-4-fluoro-2-methylphenyl]-1,3-thiazole-5-carboxamide], the half-maximal inhibitory concentration (IC50) against PDGFRβ was under 0.1 µM; in assay [1] (Phospho-KIT (Y703), M07e cells), under 0.1 µM; at c-Kit (biochemical, HTRF KinEASE-TK), under 0.1 µM; against FLT3 (biochemical, HTRF KinEASE-TK), over 1 µM; against PDGFRα, 0.1 to 1 µM; on CSF1R, 0.1 to 1 µM.

For the compound `Cc1cc(F)c(C(=O)Nc2ccn(C3CC(F)(F)C3)n2)cc1NC(=O)c1cnc(N)s1` [Example 139, 2-Amino-N-[5-[[1-(3,3-difluorocyclobutyl)pyrazol-3-yl]carbamoyl]-4-fluoro-2-methylphenyl]-1,3-thiazole-5-carboxamide], the IC50 against PDGFRβ was 0.1 to 1 µM; in assay [1] (Phospho-KIT (Y703), M07e cells), under 0.1 µM; at c-Kit (biochemical, HTRF KinEASE-TK), under 0.1 µM; at FLT3 (biochemical, HTRF KinEASE-TK), over 1 µM; against PDGFRα, 0.1 to 1 µM; on CSF1R, over 1 µM.

Turning to `Cc1cc(F)c(C(=O)Nc2ccc(OC(C)C)cn2)cc1NC(=O)c1cnc(N)s1` [Example 140, 2-Amino-N-[4-fluoro-2-methyl-5-[(5-propan-2-yloxypyridin-2-yl)carbamoyl]phenyl]-1,3-thiazole-5-carboxamide], the half-inhibitory concentration (IC50) against PDGFRβ is 0.1 to 1 µM; in assay [1] it was under 0.1 µM; at c-Kit, under 0.1 µM; against FLT3 it was over 1 µM; on PDGFRα, 0.1 to 1 µM; against CSF1R it was 0.1 to 1 µM.

Consider `Cc1cc(F)c(C(=O)Nc2ccn(CC(C)C)n2)cc1NC(=O)c1cnc(N)s1` [Example 142, 2-Amino-N-[4-fluoro-2-methyl-5-[[1-(2-methylpropyl)pyrazol-3-yl]carbamoyl]phenyl]-1,3-thiazole-5-carboxamide], for which the concentration for half-maximal inhibition (IC50) on PDGFRβ was 0.1 to 1 µM; in assay [1] (Phospho-KIT (Y703), M07e cells) it was under 0.1 µM; against c-Kit (biochemical, HTRF KinEASE-TK) it was under 0.1 µM; at FLT3 (biochemical, HTRF KinEASE-TK), over 1 µM; against PDGFRα it was 0.1 to 1 µM; against CSF1R, over 1 µM.

In the case of `Cc1cc(F)c(C(=O)Nc2ccc(OCC3CC3)cn2)cc1NC(=O)c1cnc(N)s1` [Example 143, 2-Amino-N-[5-[[5-(cyclopropylmethoxy)pyridin-2-yl]carbamoyl]-4-fluoro-2-methylphenyl]-1,3-thiazole-5-carboxamide], the IC50 on PDGFRβ was 0.1 to 1 µM; in assay [1] (Phospho-KIT (Y703), M07e cells), under 0.1 µM; against c-Kit (biochemical, HTRF KinEASE-TK), under 0.1 µM; against FLT3 (biochemical, HTRF KinEASE-TK) it was over 1 µM; on PDGFRα, over 1 µM; against CSF1R, over 1 µM.

Regarding `Cc1cc(F)c(C(=O)Nc2ccc(OC3(C)CC3)cn2)cc1NC(=O)c1cnc(N)s1` [Example 147, 2-Amino-N-[4-fluoro-2-methyl-5-[[5-(1-methylcyclopropyl)oxypyridin-2-yl]carbamoyl]phenyl]-1,3-thiazole-5-carboxamide], the IC50 against PDGFRβ is under 0.1 µM; in assay [1] (Phospho-KIT (Y703), M07e cells) it was under 0.1 µM; at c-Kit (biochemical, HTRF KinEASE-TK), under 0.1 µM; against FLT3 (biochemical, HTRF KinEASE-TK) it was over 1 µM; against PDGFRα, 0.1 to 1 µM; at CSF1R, 0.1 to 1 µM.

`Cc1cc(F)c(C(=O)Nc2ccn(CC(F)F)n2)cc1NC(=O)c1cnc(N)s1` [Example 148, 2-Amino-N-[5-[[1-(2,2-difluoroethyl)pyrazol-3-yl]carbamoyl]-4-fluoro-2-methylphenyl]-1,3-thiazole-5-carboxamide]: the IC50 is 0.1 to 1 µM against PDGFRβ; under 0.1 µM in assay [1] (Phospho-KIT (Y703), M07e cells); under 0.1 µM on c-Kit (biochemical, HTRF KinEASE-TK); over 1 µM against FLT3 (biochemical, HTRF KinEASE-TK); over 1 µM against PDGFRα; over 1 µM on CSF1R.

As for `Cc1cc(F)c(C(=O)Nc2ccn([C@@H]3CCOC3)n2)cc1NC(=O)c1cnc(N)s1` [Example 149, 2-Amino-N-[4-fluoro-2-methyl-5-[[1-[(3R)-oxolan-3-yl]pyrazol-3-yl]carbamoyl]phenyl]-1,3-thiazole-5-carboxamide], the half-inhibitory concentration (IC50) at PDGFRβ is 0.1 to 1 µM; in assay [1] (Phospho-KIT (Y703), M07e cells) it was under 0.1 µM; at c-Kit (biochemical, HTRF KinEASE-TK), under 0.1 µM; against FLT3 (biochemical, HTRF KinEASE-TK), over 1 µM; against PDGFRα, over 1 µM; against CSF1R, over 1 µM.

In the case of `Cc1cc(F)c(C(=O)Nc2ccn(C3CCOCC3)n2)cc1NC(=O)c1cnc(N)s1` [Example 150, 2-Amino-N-[4-fluoro-2-methyl-5-[[1-(oxan-4-yl)pyrazol-3-yl]carbamoyl]phenyl]-1,3-thiazole-5-carboxamide], the half-inhibitory concentration (IC50) on PDGFRβ was over 1 µM; in assay [1] (Phospho-KIT (Y703), M07e cells), under 0.1 µM; against c-Kit (biochemical, HTRF KinEASE-TK), under 0.1 µM; against FLT3 (biochemical, HTRF KinEASE-TK), over 1 µM; against PDGFRα, over 1 µM; against CSF1R, over 1 µM.

As to `Cc1cc(F)c(C(=O)Nc2ccc(OC3CC3)c(C)n2)cc1NC(=O)c1cnc(N)s1` [Example 152, 2-Amino-N-[5-[(5-cyclopropyloxy-6-methylpyridin-2-yl)carbamoyl]-4-fluoro-2-methylphenyl]-1,3-thiazole-5-carboxamide], the IC50 against PDGFRβ was 0.1 to 1 µM; in assay [1] (Phospho-KIT (Y703), M07e cells) it was under 0.1 µM; against c-Kit (biochemical, HTRF KinEASE-TK), under 0.1 µM; at FLT3 (biochemical, HTRF KinEASE-TK) it was over 1 µM; against PDGFRα, 0.1 to 1 µM; against CSF1R, over 1 µM.

`Cc1cc(F)c(C(=O)Nc2ccn(C3CCC3)n2)cc1NC(=O)c1cnc(N)s1` [Example 155, 2-Amino-N-[5-[(1-cyclobutylpyrazol-3-yl)carbamoyl]-4-fluoro-2-methylphenyl]-1,3-thiazole-5-carboxamide]: the half-maximal inhibitory concentration (IC50) was 0.1 to 1 µM on PDGFRβ; under 0.1 µM in assay [1] (Phospho-KIT (Y703), M07e cells); under 0.1 µM at c-Kit (biochemical, HTRF KinEASE-TK); over 1 µM on FLT3 (biochemical, HTRF KinEASE-TK); 0.1 to 1 µM against PDGFRα; over 1 µM against CSF1R.

For `Cc1cc(F)c(C(=O)Nc2cc3n(n2)CCC3)cc1NC(=O)c1cnc(N)s1` [Example 156, 2-Amino-N-[5-(5,6-dihydro-4H-pyrrolo[1,2-b]pyrazol-2-ylcarbamoyl)-4-fluoro-2-methylphenyl]-1,3-thiazole-5-carboxamide], the IC50 against PDGFRβ is 0.1 to 1 µM; in assay [1] (Phospho-KIT (Y703), M07e cells), under 0.1 µM; on c-Kit (biochemical, HTRF KinEASE-TK), under 0.1 µM; on FLT3 (biochemical, HTRF KinEASE-TK), over 1 µM; against PDGFRα, over 1 µM; at CSF1R it was over 1 µM.

Regarding `Cc1cc(F)c(C(=O)Nc2ccn(C(C)C)n2)cc1NC(=O)c1cnc(N)s1` [Example 158, 2-Amino-N-[4-fluoro-2-methyl-5-[(1-propan-2-ylpyrazol-3-yl)carbamoyl]phenyl]-1,3-thiazole-5-carboxamide], the IC50 at PDGFRβ was 0.1 to 1 µM; in assay [1] (Phospho-KIT (Y703), M07e cells), under 0.1 µM; against c-Kit (biochemical, HTRF KinEASE-TK), under 0.1 µM; against FLT3 (biochemical, HTRF KinEASE-TK) it was over 1 µM; at PDGFRα it was 0.1 to 1 µM; against CSF1R it was over 1 µM.

As to `Cc1cc(F)c(C(=O)Nc2ccn(C3CC3)n2)cc1NC(=O)c1cnc(N)s1` [Example 159, 2-Amino-N-[5-[(1-cyclopropylpyrazol-3-yl)carbamoyl]-4-fluoro-2-methylphenyl]-1,3-thiazole-5-carboxamide], the half-inhibitory concentration (IC50) on PDGFRβ is over 1 µM; in assay [1] (Phospho-KIT (Y703), M07e cells), under 0.1 µM; against c-Kit (biochemical, HTRF KinEASE-TK), under 0.1 µM; at FLT3 (biochemical, HTRF KinEASE-TK), over 1 µM; at PDGFRα, over 1 µM; at CSF1R, over 1 µM.

On to `Cc1cc(F)c(C(=O)Nc2ccn(-c3ccccc3)n2)cc1NC(=O)c1cnc(N)s1` [Example 172, 2-Amino-N-[4-fluoro-2-methyl-5-[(1-phenylpyrazol-3-yl)carbamoyl]phenyl]-1,3-thiazole-5-carboxamide], for which the 50% inhibitory concentration (IC50) on PDGFRβ is over 1 µM; in assay [1] (Phospho-KIT (Y703), M07e cells) it was under 0.1 µM; against c-Kit (biochemical, HTRF KinEASE-TK), under 0.1 µM; against FLT3 (biochemical, HTRF KinEASE-TK), over 1 µM; against PDGFRα, over 1 µM; against CSF1R, over 1 µM.
